Laboratory results as given in patent US7326708B2, “Phosphoric acid salt of a dipeptidyl peptidase-IV inhibitor” (Merck & Co., Inc., priority 2003, dated 2008).

Legend:
[1] = solubility in water; assay type: physicochemical
[2] = physical (crystal form) stability of the solid; assay type: physicochemical; details: for stability of the crystal form: ambient condition

Structure (SMILES)	solubility [1] [mg/mL]	solubility in water (in words) [1]	stability of the crystal form [2]	crystal form change on heating ([2]; heated to above 40° C. under very dry nitrogen flow)
N[C@@H](CC(=O)N1CCn2c(nnc2C(F)(F)F)C1)Cc1cc(F)c(F)cc1F [(2R)-4-oxo-4-[3-(trifluoromethyl)-5,6-dihydro[1,2,4]triazolo[4,3-a]pyrazin-7(8H)-yl]-1-(2,4,5-trifluorophenyl)butan-2-amine dihydrogenphosphate monohydrate]	~72	high solubility in water	stable under ambient condition	convert to dehydrated monohydrate
NC(CC(=O)N1CCn2c(nnc2C(F)(F)F)C1)Cc1cc(F)c(F)cc1F (stereo not drawn) [4-oxo-4-[3-(trifluoromethyl)-5,6-dihydro[1 ,2,4]triazolo[4,3-a]pyrazin-7(8H)-yl]-1-(2,4,5-trifluorophenyl) butan-2-amine]		high solubility in water		
N[C@@H](CC(=O)N1CCn2c(nnc2C(F)(F)F)C1)Cc1cc(F)c(F)cc1F.O=P(O)(O)O [Dehydrated monohydrate]			converted back to monohydrate	
